Assay results published in paper PMC12108296, “Physicochemical Characterization of Kynurenine Pathway Metabolites” (Antioxidants, 2025).
Values joined by “and” are separate entries in the source; they are usually repeats but may differ in a detail not shown here. Identical values can stand only once. Like-named read-outs stand apart in the source and are kept apart here. One block for each compound: values may come before it.

What was measured:
[1] = pH-potentiometric titration (pKa); type: physicochemical
Procedure: An ECO automatic titrator (Metrohm AG, Herisau, Switzerland) with a Metrohm 6.0234.110 combined pH glass electrode was used for the potentiometric titrations under automatic PC control. The electrode was calibrated with aqueous standard buffer solutions. Constant temperature (298.15 ± 0.1 K) was provided by a thermostated double-walled glass cell. Difference titrations were carried out in the absence (blank) and presence of the titrand. First, 2 mL of 0.1 mol/L HCl solutions were titrated with 0.1 mol/L KOH. A constant ionic strength of 0.15 mol/L was provided by the presence of KCl. Next, a titrand was added to the same volume of HCl solution and subsequently titrated with KOH. The initial concentration of the titrand was around between 3 and 6 mmol/L in the titrations. Non-linear parameter fitting provided the dissociation constants from the interpolated volume differences. Potentiometric titrations were performed in triplicates, and the resulting pKa values are reported with ± standard error of the three fitted values.

[2] = 1H NMR-pH titration (macroscopic and microscopic pKa); type: physicochemical; conditions: for pKa: H2O/D2O 95:5 (v/v); for predominant protonation/charge form at physiological pH: physiological pH (7.4), from the determined acid-base constants; for pKaC^A (NMR): second step dissociation microconstant of the aromatic ammonium group; for pKaA^C (NMR): second step dissociation microconstant of the carboxyl group
Procedure: NMR spectra were recorded on a 400 MHz Varian Mercury Plus spectrometer equipped with a 5 mm Varian 400 Automation Triple Resonance Broadband Pulsed Field Gradient probe at 298.15 ± 0.1 K. The solvent was H2O/D2O 95:5 (v/v), the solution contained around 5 mmol/L titrand, and the ionic strength was adjusted to 0.15 mol/L. The pH values were adjusted with 2–5 mol/L HCl or NaOH (in order to avoid substantial dilution of the solution) and determined in situ by internal indicator molecules optimized for ^1H NMR [27, 28]. The sample volume was 500 μL containing DSS (3-(trimethylsilyl)propane-1-sulfonate) as a chemical shift reference. The H2O ^1H signal was suppressed with a WET sequence; the average acquisition parameters for ^1H measurements are number of transients = 8, number of points = 65,536, acquisition time = 3.33 s, and relaxation delay = 1.5 s. All spectra were processed using the MestReNova v9.0.1-13254 (Mestralab Research, S.L., Santiago de Compostela, Spain) software. NMR-pH titrations were performed once, and resulting pKa values are reported with ± standard error of the model fit.
The corollary of this assumption is not so obvious, however: the aliphatic ^1H NMR signals are relatively close to the aromatic amino group (in terms of covalent distance), especially the methylene group (5 covalent distance), therefore selectivity of aliphatic ^1H NMR signals in favor of aliphatic ammonium and carboxyl dissociation is dubious. This, however, can be exploited: the titration curve of the methylene group thus affords all three macroconstants, including Ka1, Ka2 in the acidic region (Equation (1)), while the aromatic and αCH ^1H NMR signals selectively afford the microconstants KaC^A (second step dissociation microconstant of the aromatic ammonium group), KaA^C (second step dissociation microconstant of the carboxyl group) (Equation (2)). […] Note that Equation (2) in its current form applies to the titration curves of the aromatic signals; for the αCH signal, Equation (2) is rewritten with KaC^A and KaA^C exchanged. For the curve fitting of Equation (2), the macroconstants are treated as fixed parameters transferred from the fitting of Equation (1).(1) δobs=δL+δHL·Ka2·10^−pH+δH2L·Ka1·Ka2·10^−2·pH/1+Ka2·10^−pH+Ka1·Ka2·10^−2·pH (2) δobs=δL·1+KaCA·10^−pH+δHL·KaAC·10^−pH+Ka1·Ka2·10^−2·pH/1+Ka2·10^−pH+Ka1·Ka2·10^−2·pH
The remaining dissociation microconstants (Ka^C and Ka^A) were calculated using Equation (3). Modern theoretical considerations of acid-base microconstant determination can be found in the works of Noszál and Borkovec, while some examples can be found in recent works.(3) pKa1+pKa2=pKaA+pKaAC=pKaC+pKaCA
The titration of 3-hydroxykynurenine (Figure 5) was treated the same way as for kynurenine, with the difference that 3-hydroxykynurenine has an overlapping dissociation in the basic pH region as well (the primary aliphatic ammonium dissociation overlaps with the dissociation of the phenol group). The same principle can be applied to the macro- and microconstant determination of kynurenine; only the last two macroconstants were transferred from potentiometric titration data since the latter is more precise than NMR-pH determined values and the chemical shift response of the methylene group towards the phenol dissociation (6 covalent distance) is not expected to be reliable. Otherwise, the microconstants of the basic pH range (KaACN^O—phenol group, KaACO^N—primary aliphatic ammonium group) were determined by fitting an analog (featuring Ka3 and Ka4) of Equation (2) to the titration data of all ^1H NMR signals. Note that the fitted pKaACN^O falls very close to the calculated pKaAC^N; therefore, to ensure a decreasing sequence of Ka values in every microscopic protonation pathway, an additional constraint was used during fitting: pKaACN^O be greater than the mean of pKa3 and pKa4. […]

[3] = cited from earlier work; for pKa (first value) / pKa (second value): no mention of experimental methods
ROS = system: ROS; set-up: method as in PMID 21763768; conditions: cited from earlier work
UV-pH titration (pKa) = type: physicochemical; conditions: for pKa: aqueous HCl/NaOH solutions of varying pH
Procedure: UV spectroscopic measurements were carried out on a Jasco V-550 diode-array spectrometer (Jasco Ltd., Tokyo, Japan) with 10 mm quartz cuvettes at 298 K. The titrand was diluted with an acidic (HCl) and a basic (NaOH) stock solution to the same analyte concentration (adjusting ionic strength to 0.15 mol/L). In the case of kynurenic acid, a saturated acidic solution was diluted 10 times with HCl and NaOH, respectively, to obtain the stock solutions. Sample solutions with varying pH were prepared by mixing the two stock solutions in varying ratios. pH values were read on a Metrohm 2.780.0010 precision pH meter with a 6.0258.600 Unitrode glass Pt 1000 electrode (Metrohm AG, Herisau, Switzerland), and the pH-potentiometric system was calibrated using standard buffer solutions.

[4] = in vitro parallel permeability assay (PAMPA); type: in vitro ADME; conditions: passive transport only
Procedure: To further obtain additional information regarding the microspeciation scheme, the synthesis of methyl ester derivatives was attempted since these model compounds could provide the value of microconstants for cases where the carboxylic acid group is undissociated. […] In the first attempt, the compounds were each dissolved with 1-ethyl-3-(3-dimethylaminopropyl)carbodiimide (EDAC) and triethylamine in dichloromethane, and after fifteen minutes, methanol was added to the mixture, which was stirred overnight at room temperature. After this, the solution was washed with saturated sodium bicarbonate solution and distilled water. The organic phase was dried over sodium sulfate and then removed from the rotary evaporator. In the second attempt, the compounds were each dissolved in methanol, and the solution was cooled to 0 °C. Thionyl chloride was added dropwise, and the mixture was stirred at the same temperature for four hours. Then, the solvent was removed from the rotary evaporator, yielding an oily residue. […] The measurement of lipophilicity and membrane penetration of kynurenine and 3-hydroxykynurenine was also attempted; however, due to the extremely low predicted logP value of these compounds, it was not unexpected that obtaining such experimental data would not be feasible. […]

[5] = aqueous HCl solution with KCl, titrated with KOH, unreliable, since two values could not be fitted, read-out: single pKa fitted in the acidic pH region (pH potentiometry titration)
[6] = first step microconstant of the aromatic ammonium group, calculated using Equation (3), read-out: pKa^A
[7] = first step microconstant of the carboxyl group, calculated using Equation (3), read-out: pKa^C
[8] = macroconstant from methylene signal, 298.15 K, ionic strength 0.15 mol/L, read-out: pKa1 (NMR)
[9] = macroconstant from methylene signal, 298.15 K, ionic strength 0.15 mol/L, read-out: pKa2 (NMR)

pKa ([1]; aqueous HCl solution with KCl, titrated with KOH, macroconstant, 298.15 K, ionic strength 0.15 mol/L, read-out: pKa3 (potentiometry)): 8.65 | pKa ([1]; aqueous HCl solution with KCl, titrated with KOH, macroconstant, 298.15 K, ionic strength 0.15 mol/L, read-out: pKa4 (potentiometry)): 9.55 | pKa [1, 5]: 2.53 ± 0.03 | pKa [2, 6]: 1.82 | pKa [2, 7]: 1.91 | pKa [2, 8]: 1.56 | pKa [2, 9]: 2.69 | pKaAC^N ([2]; microconstant of the aliphatic ammonium group, phenol still protonated, calculated): 9.08 | pKaAC^O ([2]; microconstant of the phenol group, aliphatic ammonium still protonated, calculated): 8.85 | pKaACN^O (NMR) ([2]; microconstant of the phenol group, basic pH range, fit constrained to exceed mean of pKa3 and pKa4): 9.12 | pKaACO^N (NMR) ([2]; microconstant of the primary aliphatic ammonium group, basic pH range): 9.35 | predominant protonation/charge form at physiological pH [2]: zwitterionic form | pKaC^A (NMR) [2]: 2.34 | pKaA^C (NMR) [2]: 2.43
SMILES: Nc1c(O)cccc1C(=O)CC(N)C(=O)O (stereo not shown) [3-hydroxykynurenine]

pKa ([1]; aqueous HCl solution with KCl, titrated with KOH, value is unreliable due to precipitate formation, read-out: pKa fitted (pH potentiometry titration)): 3.1 ± 0.1 | solubility behaviour during titration ([1]; below pH 3, no issue above pH 3): precipitation | pKa (UV-pH titration (pKa); 10-fold diluted saturated solution, 298 K, ionic strength 0.15 mol/L, read-out: pKa (UV-pH titration, full spectrum measurement)): 2.44 ± 0.02 | pKa (UV-pH titration (pKa); single dissociation step, UV-pH titration, 298 K, ionic strength 0.15 mol/L, read-out: pKa1 (UV)): ~2.4 | pKa1 (UV) (UV-pH titration (pKa); single dissociation step, UV-pH titration, 298 K, ionic strength 0.15 mol/L): 2.43 | dissociation step above pH 7 until 13 ([2]; potentiometric and NMR-pH titration attempts): no dissociation step
SMILES: O=C(O)c1cc(=O)c2ccccc2[nH]1 [kynurenic acid]
pKa of the radical form ([3]; radical form): 5.5 | concentration that can abolish iron(II) sulfate-induced ROS production (ROS): exceeding 100 µM

pKa ([1]; aqueous HCl solution with KCl, titrated with KOH, 298.15 K, ionic strength 0.15 mol/L, read-out: pKa fitted in the basic pH region (pH potentiometry titration)): 9.13 ± 0.02 | pKa [1, 5]: 2.39 ± 0.04 | pKaC^A (UV-pH titration) (UV-pH titration (pKa); second step dissociation microconstant of the aromatic ammonium group): 2.08 ± 0.2 | pKaA^C (UV-pH titration) (UV-pH titration (pKa); second step dissociation microconstant of the carboxyl group): 2.33 ± 0.05 | pKa [2, 6]: 1.39 | pKa [2, 7]: 1.63 | pKa [2, 8]: 1.19 | pKa [2, 9]: 2.49 | pKa ([2]; macroconstant, aliphatic ammonium, 298.15 K, ionic strength 0.15 mol/L, read-out: pKa3 (NMR)): 9.33 | predominant protonation/charge form at physiological pH [2]: zwitterionic form | pKaC^A (NMR) [2]: 2.05 ± 0.04 and 2.05 | pKaA^C (NMR) [2]: 2.29 ± 0.03 and 2.29
SMILES: Nc1ccccc1C(=O)C[C@H](N)C(=O)O [kynurenine]
membrane penetration/retention (PAMPA) [4]: no detectable membrane penetration/retention

pKa ([1]; aqueous HCl solution with KCl, titrated with KOH, triplicate, ± standard error, 298.15 K, ionic strength 0.15 mol/L, read-out: pKa2 (potentiometry)): 5.22 ± 0.01 | pKa ([1]; aqueous HCl solution with KCl, titrated with KOH, extreme acidic pKa of the carboxyl group, rough estimate, single nonlinear curve fit, 298.15 K, ionic strength 0.15 mol/L, read-out: pKa1 (by extrapolation of potentiometry)): ~0.63 | pKa ([1]; aqueous solution, ionic strength 0.15 mol/L, both titration techniques, 298.15 K, ionic strength 0.15 mol/L, read-out: pKa2 (mean of potentiometry and NMR)): ~5.2 | pKa2 (mean of potentiometry and NMR) ([1]; both titration techniques, 298.15 K, ionic strength 0.15 mol/L): 5.21 | pKa1 (by extrapolation of potentiometry) ([1]; extreme acidic pKa of the carboxyl group, rough estimate, single nonlinear curve fit, 298.15 K, ionic strength 0.15 mol/L): ~0.6 | pKa ([2]; ± standard error of fit, 298.15 K, ionic strength 0.15 mol/L, H2O/D2O 95:5, read-out: pKa (NMR-pH titration)): 5.19 ± 0.02 | pH of a further dissociation step indicated by shift of NMR signals ([2]; slight systematic shift below pH 1.5, outside the range of determination): < 1
SMILES: O=C(O)c1ccccn1 [picolinic acid]
pKa (first value) ([3]; ref 25): 1.0 | pKa (second value) ([3]; ref 25): 5.4 | pKa (first value) ([3]; ref 26): 1.07 | pKa (second value) ([3]; ref 26): 5.25
